From PMC3913610, “Antitumor Activity and Induction of TP53-Dependent Apoptosis toward Ovarian Clear Cell Adenocarcinoma by the Dual PI3K/mTOR Inhibitor DS-7423” (PLoS ONE, 2014)
Blank lines part the entries; values can stand above or below the compound they belong to.

Experiments:
[1] = tested on: recurrent OCCA; parameters: method as in PMID 21243393; conditions: six cases, weekly administration, recurrent OCCA patients ref 39; cited from earlier work
[2] = molecular target: PI3Kδ (Homo sapiens, UniProt O00329); experiment: PI3Kδ inhibition; assay type: biochemical
PI3Kδ, sequence (O00329 whole entry): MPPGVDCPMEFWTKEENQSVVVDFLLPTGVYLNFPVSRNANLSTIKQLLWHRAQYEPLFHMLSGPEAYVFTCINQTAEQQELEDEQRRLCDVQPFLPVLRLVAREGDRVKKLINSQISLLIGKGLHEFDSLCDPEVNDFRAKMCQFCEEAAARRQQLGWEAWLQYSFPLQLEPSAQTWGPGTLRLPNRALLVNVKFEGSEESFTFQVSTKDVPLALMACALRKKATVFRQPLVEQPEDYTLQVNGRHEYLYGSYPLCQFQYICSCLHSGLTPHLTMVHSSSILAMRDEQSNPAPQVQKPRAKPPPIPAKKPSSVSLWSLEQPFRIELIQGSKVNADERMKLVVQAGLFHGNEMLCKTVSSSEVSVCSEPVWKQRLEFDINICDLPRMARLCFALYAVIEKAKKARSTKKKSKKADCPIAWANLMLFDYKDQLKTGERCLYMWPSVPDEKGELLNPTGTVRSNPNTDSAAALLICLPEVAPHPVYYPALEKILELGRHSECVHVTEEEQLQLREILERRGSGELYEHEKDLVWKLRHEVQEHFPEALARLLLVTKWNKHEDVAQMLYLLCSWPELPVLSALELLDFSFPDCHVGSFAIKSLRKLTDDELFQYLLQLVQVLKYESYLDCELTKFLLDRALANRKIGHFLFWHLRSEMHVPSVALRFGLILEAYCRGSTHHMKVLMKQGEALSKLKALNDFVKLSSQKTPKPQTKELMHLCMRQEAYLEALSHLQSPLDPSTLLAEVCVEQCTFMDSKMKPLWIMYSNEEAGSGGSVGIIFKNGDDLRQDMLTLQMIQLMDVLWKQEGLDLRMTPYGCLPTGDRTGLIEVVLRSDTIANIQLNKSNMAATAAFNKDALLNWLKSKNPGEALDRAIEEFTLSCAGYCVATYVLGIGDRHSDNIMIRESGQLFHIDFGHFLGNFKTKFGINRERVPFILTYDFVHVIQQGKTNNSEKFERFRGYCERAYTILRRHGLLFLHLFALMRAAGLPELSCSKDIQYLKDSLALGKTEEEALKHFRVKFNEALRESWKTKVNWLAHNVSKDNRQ
PI3Kδ, sequence (P27986 whole entry partner): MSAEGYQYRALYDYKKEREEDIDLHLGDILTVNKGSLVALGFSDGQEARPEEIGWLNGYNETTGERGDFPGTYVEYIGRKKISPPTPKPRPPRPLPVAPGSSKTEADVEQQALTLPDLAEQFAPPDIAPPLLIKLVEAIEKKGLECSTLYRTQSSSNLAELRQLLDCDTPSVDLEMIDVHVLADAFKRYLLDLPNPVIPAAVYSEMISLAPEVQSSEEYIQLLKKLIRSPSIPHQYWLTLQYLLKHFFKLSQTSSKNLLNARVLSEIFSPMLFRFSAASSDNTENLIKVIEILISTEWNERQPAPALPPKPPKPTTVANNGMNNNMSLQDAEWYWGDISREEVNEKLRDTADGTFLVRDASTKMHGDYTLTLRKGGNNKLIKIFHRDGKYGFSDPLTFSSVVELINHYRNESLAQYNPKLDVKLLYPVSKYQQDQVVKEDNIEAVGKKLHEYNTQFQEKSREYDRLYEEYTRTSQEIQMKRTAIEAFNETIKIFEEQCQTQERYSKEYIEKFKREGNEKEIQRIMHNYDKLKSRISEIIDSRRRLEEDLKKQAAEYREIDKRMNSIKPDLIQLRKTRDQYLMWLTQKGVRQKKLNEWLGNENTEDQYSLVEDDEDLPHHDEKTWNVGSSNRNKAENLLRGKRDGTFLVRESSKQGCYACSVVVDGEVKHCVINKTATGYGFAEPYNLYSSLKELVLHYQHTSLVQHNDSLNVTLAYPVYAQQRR

[3] = molecular target: 227 kinases; experiment: Kinase selectivity panel; assay type: biochemical; conditions: 227 kinases tested, except MLK1 and NEK2
[4] = molecular target: Never-In-Mitosis Gene A (NIMA)-related kinase 2 (NEK2) (Homo sapiens, UniProt P51955); experiment: Kinase selectivity panel, NEK2; assay type: biochemical; conditions: NEK2, relevant activity observed
[5] = tested on: OCCA cell lines; experiment: Apoptosis by annexin-V FITC/PI staining, OCCA panel; assay type: cell-based
Protocol: (§1) Cells (5×10^5) were cultured in 60-mm plates for 24 h before treatment with either DMSO (control), and 156 nM DS-7423, or 2,500 nM DS-7423 for 48 h. Cells were trypsinized, washed twice with PBS, and then analyzed after double staining with annexin-V fluorescein isothiocyanate (FITC) (Abcam, Cambridge, MA) and PI. The apoptotic cell population was analyzed using flow cytometry. All experiments were performed three times.

[6] = molecular target: PI3Kα (Homo sapiens, UniProt P42336); experiment: PI3Kα inhibition; assay type: biochemical
[7] = tested on: nine OCCA cell lines; experiment: Proliferation (MTT/WST-8) assay, OCCA panel; assay type: cell-based; conditions: 156 nM, 72 h
Protocol: (§2) Assays of the suppression of cell proliferation were performed with the Cell Counting Kit-8 using the tetrazolium salt WST-8 [2-(2-methoxy-4-nitrophenyl)-3-(4-nitrophenyl)-5-(2,4-disulfophenyl)-2H-tetrazolium, monosodium salt] (Dojindo, Tokyo, Japan) for the methyl thiazolyl tetrazolium (MTT) assay. […] Proliferation was quantified by monitoring the changes in the absorbance at 450 nm, which were normalized relative to the absorbance of cell cultures treated with DMSO alone.

[8] = molecular target: PI3Kβ (Homo sapiens, UniProt P42338); experiment: PI3Kβ inhibition; assay type: biochemical
PI3Kβ, sequence (P42338 whole entry): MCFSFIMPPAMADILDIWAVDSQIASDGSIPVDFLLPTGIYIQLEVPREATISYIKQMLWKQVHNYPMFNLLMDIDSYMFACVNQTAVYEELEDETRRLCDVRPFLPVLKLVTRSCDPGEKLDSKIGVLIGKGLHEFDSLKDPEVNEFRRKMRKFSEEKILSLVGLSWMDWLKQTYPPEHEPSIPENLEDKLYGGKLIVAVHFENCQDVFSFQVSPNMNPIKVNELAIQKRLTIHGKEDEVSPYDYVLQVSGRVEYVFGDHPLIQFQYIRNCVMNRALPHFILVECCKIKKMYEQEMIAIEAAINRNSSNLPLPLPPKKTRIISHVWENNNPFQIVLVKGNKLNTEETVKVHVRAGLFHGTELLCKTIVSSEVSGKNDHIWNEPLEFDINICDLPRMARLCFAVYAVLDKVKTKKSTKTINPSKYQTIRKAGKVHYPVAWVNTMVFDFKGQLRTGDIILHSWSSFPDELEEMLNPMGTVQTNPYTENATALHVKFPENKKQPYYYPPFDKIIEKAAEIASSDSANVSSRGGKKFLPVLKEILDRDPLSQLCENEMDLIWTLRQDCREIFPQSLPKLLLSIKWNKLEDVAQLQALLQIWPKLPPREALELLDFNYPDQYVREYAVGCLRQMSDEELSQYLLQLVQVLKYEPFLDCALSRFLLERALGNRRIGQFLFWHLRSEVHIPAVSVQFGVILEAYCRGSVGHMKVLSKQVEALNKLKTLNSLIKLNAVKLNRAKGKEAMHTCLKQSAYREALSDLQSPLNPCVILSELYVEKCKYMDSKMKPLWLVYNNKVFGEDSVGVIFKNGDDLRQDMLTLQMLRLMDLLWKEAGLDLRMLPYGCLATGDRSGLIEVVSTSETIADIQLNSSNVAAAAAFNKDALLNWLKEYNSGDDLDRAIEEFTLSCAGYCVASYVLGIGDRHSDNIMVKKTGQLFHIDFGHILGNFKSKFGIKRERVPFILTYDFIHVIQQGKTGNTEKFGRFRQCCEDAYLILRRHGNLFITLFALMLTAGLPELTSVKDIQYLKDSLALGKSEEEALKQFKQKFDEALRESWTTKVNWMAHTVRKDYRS
PI3Kβ, sequence (P27986 whole entry partner): as the sequence (P27986 whole entry partner) above

[9] = tested on: seven OSA lines; experiment: Proliferation (MTT/WST-8) assay, OSA panel; assay type: cell-based; conditions: four of seven OSA cell lines
Protocol: as §2

[10] = tested on: cleavage of PARP in OVMANA cells; experiment: Cleaved PARP immunoblotting; assay type: cell-based
From the text: (§3) Antibodies to total Akt, phosphorylation of Akt (p-Akt) (Ser473, Thr308), p-GSK3beta (Ser9), total S6, p-S6 (Ser235/236, Ser 240/244), p-4EBP1 (Thr37/46), p-FOXO1 (Thr24), p-FOXO3a (Thr32), p-MDM2 (Ser 166), p-TP53 (Ser15), cleaved-PARP, and PARP (Cell Signaling Technology, Beverly, MA), beta-actin (Sigma-Aldrich, St. Louis, MO), TP53 (Santa Cruz, CA, USA) and p-TP53 (Ser46) (Calbiochem, Billerica, MA) were used for immunoblotting, as recommended by the manufacturers. Signals were detected using BioRAD western blotting systems (BioRAD, Hercules, CA) with the detection reagents ECL advance and ECL select (GE Healthcare, Piscataway, NJ).

[11] = tested on: phosphorylation of AKT, S6, FOXO1/3a in OCCA cells; experiment: Immunoblotting of PI3K/mTOR signaling in OCCA cells; assay type: cell-based
From the text: Signals were detected using BioRAD western blotting systems (BioRAD, Hercules, CA) with the detection reagents ECL advance and ECL select (GE Healthcare, Piscataway, NJ).

[12] = tested on: OVISE cells; experiment: Proliferation (MTT/WST-8) assay; assay type: cell-based; conditions: siRNA to TP53, MTT assay
Protocol: as §2

[13] = tested on: OVISE cells; experiment: Apoptosis by annexin-V FITC/PI staining; assay type: cell-based
Protocol: as §1
Cells were plated at approximately 30% confluence in 100-mm plates and incubated for 24 h before transfection with small interfering RNA (siRNA) duplexes at the concentrations indicated, using Lipofectamine […] RNAiMAX (Invitrogen, Carlsbad, CA) and Opti-MEM medium (Life Technologies, Grand Island, NY). The siRNAs specific for TP53 were purchased from Invitrogen. A negative control kit was used as a control (Invitrogen, Carlsbad, CA).

[14] = molecular target: mTOR (Homo sapiens, UniProt P42345); experiment: mTOR inhibition; assay type: biochemical
[15] = molecular target: PI3Kγ (Homo sapiens, UniProt P48736); experiment: PI3Kγ inhibition; assay type: biochemical
PI3Kγ, sequence (P48736 whole entry): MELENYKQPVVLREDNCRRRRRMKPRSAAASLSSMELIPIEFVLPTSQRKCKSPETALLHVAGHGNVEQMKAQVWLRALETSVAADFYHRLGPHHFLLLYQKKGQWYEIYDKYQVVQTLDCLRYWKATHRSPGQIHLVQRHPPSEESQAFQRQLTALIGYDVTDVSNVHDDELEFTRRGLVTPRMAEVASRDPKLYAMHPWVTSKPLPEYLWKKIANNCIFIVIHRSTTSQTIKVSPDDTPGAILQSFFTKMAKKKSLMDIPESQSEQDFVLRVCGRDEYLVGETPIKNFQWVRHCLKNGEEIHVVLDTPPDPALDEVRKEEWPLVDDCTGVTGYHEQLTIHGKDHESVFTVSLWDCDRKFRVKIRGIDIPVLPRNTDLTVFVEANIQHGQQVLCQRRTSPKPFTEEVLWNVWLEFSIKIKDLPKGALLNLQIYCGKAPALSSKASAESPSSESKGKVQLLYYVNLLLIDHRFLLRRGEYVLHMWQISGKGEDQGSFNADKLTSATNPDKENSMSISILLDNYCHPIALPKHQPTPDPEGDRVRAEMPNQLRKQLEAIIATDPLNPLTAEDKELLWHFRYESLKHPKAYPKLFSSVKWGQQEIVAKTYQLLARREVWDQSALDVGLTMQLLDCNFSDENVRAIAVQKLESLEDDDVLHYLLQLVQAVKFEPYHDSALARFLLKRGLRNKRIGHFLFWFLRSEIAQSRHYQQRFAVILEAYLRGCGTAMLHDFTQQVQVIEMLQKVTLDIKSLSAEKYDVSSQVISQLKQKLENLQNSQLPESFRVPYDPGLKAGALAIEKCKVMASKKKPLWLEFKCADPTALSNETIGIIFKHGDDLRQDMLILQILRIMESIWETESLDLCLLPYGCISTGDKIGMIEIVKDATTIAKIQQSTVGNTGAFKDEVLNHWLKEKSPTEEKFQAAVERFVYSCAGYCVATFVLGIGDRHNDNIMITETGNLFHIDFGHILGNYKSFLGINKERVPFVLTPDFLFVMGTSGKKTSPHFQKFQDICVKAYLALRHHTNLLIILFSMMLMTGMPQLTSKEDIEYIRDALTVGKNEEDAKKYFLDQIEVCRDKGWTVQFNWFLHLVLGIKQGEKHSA

[16] = tested on: OCCA cells; experiment: Cell cycle analysis (flow cytometry), OCCA panel; assay type: cell-based; conditions: 48 h
Protocol: Cells (5×10^5) were seeded in 60-mm dishes and treated with DS-7423 for 48 h. Floating and adherent cells were collected by trypsinization and washed twice with phosphate buffer saline (PBS). Cells were resuspended in cold 70% ethanol and maintained at 4°C overnight. After being washed twice with PBS, cells were incubated in RNase A (0.25 mg/mL) (Sigma) for 30 min at 37°C, followed by staining with propidium iodide (PI; 50 μg/mL) (Sigma) at 4°C for 30 min in the dark. Cells were then analyzed using flow cytometry (BD FACS Calibur HG, Franklin Lakes, NJ). Cell cycle distribution was analyzed using CELL Quest pro ver. 3.1. […]. All experiments were repeated three times.

[17] = tested on: TP53-regulated genes in OVMANA and OVISE cells; experiment: Semi-quantitative RT-PCR of TP53 target genes; assay type: cell-based
From the text: Total RNAs of these cells were extracted with the RNeasy Mini Kit according to the manufacturer's instructions (QIAGEN, Valencia, CA). cDNAs were synthesized from total RNAs by using the Super Script III First-strand Synthesis SuperMix (Invitrogen, Carlsbad, CA). The exponential phase of the RT-PCR occurred between 15–30 cycles, and these cycles were monitored to allow semi-quantitative comparisons among the cDNAs developed from identical reactions. The primers and conditions for the amplification of p53AIP1, p21, and GAPDH sequences were described previously. The PCR primers for PUMA were 5′-[…]-3′ (forward) and 5′-[…] CTC-3′ (reverse). The primers for p53R2, TIGAR, GLS2, GADD45, 14-3-3 sigma and PAI-1 were described previously [30]–[35]. Each PCR regimen involved a 2-min initial denaturation step (94°C), which was followed by 15–30 cycles at 94°C for 30 s, then at 55°C for 30 s, and finally, at 72°C for 30 s using a Thermal Cycler Gene Atlas instrument (ASTEC, Fukuoka, Japan).

[18] = tested on: TOV-21G xenografts; experiment: Tumor xenograft in nude mice; assay type: in vivo
From the text: (§4) Specific pathogen-free female nude mice (BALB/cAJcl-nu/nu), 6 weeks old, were purchased from CLEA Japan, Inc (Tokyo, Japan). Subcutaneous xenograft tumors in the mice were established by the injection of a 100-μL suspension containing 5×10^6 cells of the TOV-21, RMG-I, or ES-2 lines in PBS. Tumors were removed after exponential growth, cut into 3-mm pieces, and transplanted subcutaneously into other mice for RMG-I cells. DS-7423 was suspended in 0.5 w/v% Methyl Cellulose 400 solution (Wako Pure Chemical Industries, Ltd.) Oral daily administration of DS-7423 started 8–22 days later, following the injection of the cells (5–6×10^6 cells/0.1 mL). One week after tumor transplantation, mice were assigned randomly to one of the […] treatment regimens: (1) non-treated control, (2) DS-7423 (1.5 mg/kg), (3) DS-7423 (3 mg/kg), and (4) DS-7423 (6 mg/kg). Each treatment group consisted of five mice. DS-7423 was injected orally (p.o.) once a day. Tumor volumes (in mm^3) were calculated by the formula: ([major axis] × [minor axis]^2/2). After the treatment, the tumors were removed and analyzed by western blotting. Tumor weight (wet weight) was measured, and the average weight was calculated for each group.

[19] = tested on: RMG-I xenografts; experiment: Tumor xenograft in nude mice; assay type: in vivo
From the text: as §4

[20] = tested on: ES-2 xenografts; experiment: Tumor xenograft in nude mice; assay type: in vivo
From the text: as §4
Supplementary file pone.0087220.s002.pptx: Figure S2 In vivo effect of DS-7423 in nude mice. […] The levels of p-Akt (Thr-308) and p-S6 (Ser-240/244) were assessed. […]

[21] = molecular target: Mixed Lineage Kinase 1 (MLK1) (Homo sapiens, UniProt P80192); experiment: Kinase selectivity panel, MLK1; assay type: biochemical; conditions: MLK1, relevant activity observed
Mixed Lineage Kinase 1 (MLK1), sequence (P80192 whole entry, species assumed): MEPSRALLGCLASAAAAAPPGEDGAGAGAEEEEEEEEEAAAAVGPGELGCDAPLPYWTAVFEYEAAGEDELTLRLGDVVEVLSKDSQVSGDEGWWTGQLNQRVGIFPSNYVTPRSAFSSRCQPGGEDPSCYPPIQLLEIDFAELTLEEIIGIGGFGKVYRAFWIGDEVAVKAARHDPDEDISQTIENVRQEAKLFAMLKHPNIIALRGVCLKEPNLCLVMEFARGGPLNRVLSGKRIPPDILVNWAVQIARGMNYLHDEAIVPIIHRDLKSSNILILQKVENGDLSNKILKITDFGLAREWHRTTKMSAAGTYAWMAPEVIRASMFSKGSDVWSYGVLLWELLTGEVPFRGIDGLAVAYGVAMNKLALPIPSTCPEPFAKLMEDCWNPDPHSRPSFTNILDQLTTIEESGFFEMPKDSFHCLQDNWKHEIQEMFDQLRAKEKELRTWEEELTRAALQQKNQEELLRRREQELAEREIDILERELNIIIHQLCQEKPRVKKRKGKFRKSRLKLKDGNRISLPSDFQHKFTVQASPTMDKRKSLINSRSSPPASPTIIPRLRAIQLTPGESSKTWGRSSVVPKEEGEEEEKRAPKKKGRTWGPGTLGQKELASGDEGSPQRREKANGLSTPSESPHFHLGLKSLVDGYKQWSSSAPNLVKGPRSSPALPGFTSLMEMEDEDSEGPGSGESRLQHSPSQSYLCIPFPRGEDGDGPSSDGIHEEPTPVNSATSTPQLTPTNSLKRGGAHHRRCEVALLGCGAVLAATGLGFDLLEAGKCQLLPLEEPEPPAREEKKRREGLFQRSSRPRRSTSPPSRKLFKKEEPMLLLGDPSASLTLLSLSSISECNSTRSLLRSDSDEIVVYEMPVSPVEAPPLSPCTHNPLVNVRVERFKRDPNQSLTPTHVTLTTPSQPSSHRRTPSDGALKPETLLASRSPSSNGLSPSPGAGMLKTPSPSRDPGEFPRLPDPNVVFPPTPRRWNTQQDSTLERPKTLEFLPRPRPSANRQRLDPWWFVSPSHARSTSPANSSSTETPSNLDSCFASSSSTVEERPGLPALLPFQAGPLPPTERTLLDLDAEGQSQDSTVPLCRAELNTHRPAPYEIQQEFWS

[22] = tested on: p-MDM2, p-TP53 in OVMANA cells; experiment: Immunoblotting of p-MDM2 and p-TP53; assay type: cell-based
From the text: as §3

[23] = tested on: OVMANA cells; experiment: Proliferation (MTT/WST-8) assay; assay type: cell-based; conditions: 72 h
Protocol: as §2

[24] = tested on: OVTOKO cells; experiment: Proliferation (MTT/WST-8) assay; assay type: cell-based; conditions: 72 h
Protocol: as §2

[25] = tested on: SKOV3 cells; experiment: Proliferation (MTT/WST-8) assay; assay type: cell-based; conditions: Homo sapiens, SK-OV-3; SKOV3, 72 h
Protocol: as §2

[26] = tested on: RMG-I cells; experiment: Proliferation (MTT/WST-8) assay; assay type: cell-based; conditions: Homo sapiens, RMG-1, 72 h
Protocol: as §2

[27] = tested on: JHOC-7 cells; experiment: Proliferation (MTT/WST-8) assay; assay type: cell-based; conditions: JHOC-7, 72 h
Protocol: as §2

SMILES: CO[C@H]1C[C@@H]2CC[C@@H](C)[C@@](O)(O2)C(=O)C(=O)N2CCCC[C@H]2C(=O)O[C@H]([C@H](C)C[C@@H]2CC[C@@H](OC(=O)C(C)(CO)CO)[C@H](OC)C2)CC(=O)[C@H](C)/C=C(\C)[C@@H](O)[C@@H](OC)C(=O)[C@H](C)C[C@H](C)/C=C/C=C/C=C/1C [temsirolimus]
clinical response [1]: partial response in one patient and stable disease in another patient

SMILES: CC(=O)N1CCN(c2nc3c(N4CCOCC4)nc(-c4cnc(N)nc4)nc3n2CC(F)(F)F)C[C@H]1C [DS-7423]
IC50 [2]: 262 nM
Relevant activity (IC50 <200 nM) [3]: not observed
IC50 [4]: < 200 nM
apoptosis (annexin-V FITC/PI) ([5]; 156 nM, 48 h, five of the six cell lines that lacked mutations in TP53): 4–12%
apoptosis (annexin-V FITC/PI) ([5]; 2,500 nM, 48 h, five cell lines without TP53 mutations): 10–16%
ratio of apoptotic cells ([5]; even at high concentrations): less than 20%
apoptosis (annexin-V FITC/PI) ([5]; three cell lines with TP53 mutations, any of the doses tested): ≤ 5%
IC50 [6]: 15.6 nM
inhibition of cell growth [7]: 70%–97%
IC50 [8]: 1140 nM
IC50 [9]: > 100 nM
concentration at which induction of cleaved-PARP was observed ([10]; 4 h, dose-dependent up to 2,500 nM): 39 nM
time to cleavage of PARP ([10]; OVMANA cells without mutations in TP53, 156 nM): ≤ 2 h
doses suppressing phosphorylation of AKT (Thr308 and Ser473) and S6 (Ser235/236 and Ser240/244) ([11]; these doses and higher, OCCA cells): 39 to 156 nM
anti-proliferative effect when combined with knockdown of TP53 [12]: significantly reduced
percentage of apoptotic cells compared with rapamycin ([13]; OVISE cells): significantly higher
apoptotic cell death after knockdown of TP53 ([13]; OVISE, TP53 siRNA, 156 or 2,500 nM, 48 h): rescued
IC50 [14]: 34.9 nM
IC50 [15]: 249 nM
size of the S-phase population ([16]; OCCA cells, change weak in ES-2): decreased
sizes of sub-G1 populations ([16]; six of the nine cell lines): increased in a dose-dependent manner
expression of p21 ([17]; 39, 156, and 2,500 nM, 24 h): did not induce
expression of GADD45 ([17]; OVISE cells): significantly induced
doses inducing expression of p53AIP1 and PUMA ([17]; OVMANA and OVISE cells, 24 h): ≥ 39 nM
expression of TIGAR ([17]; OVMANA cells): decreased
adverse effects, including body weight loss of more than 10% ([18]; TOV-21G xenograft mice, oral daily 1.5, 3 or 6 mg/kg): No significant adverse effects
levels of p-AKT (Thr308) and p-S6 (Ser240/244) in xenografts ([18]; TOV-21G xenografts, 2 and 6 h after last administration): suppressed
tumor growth of xenografts ([18]; TOV-21G, oral daily 1.5, 3 or 6 mg/kg, dose-dependent): significantly suppressed
adverse effects, including body weight loss of more than 10% ([19]; RMG-I xenograft mice, oral daily 1.5, 3 or 6 mg/kg): No significant adverse effects
levels of p-AKT (Thr308) and p-S6 (Ser240/244) in xenografts ([19]; RMG-I xenografts, 2 and 6 h after last administration): suppressed
tumor growth of xenografts ([19]; RMG-I, oral daily 1.5, 3 or 6 mg/kg, dose-dependent): significantly suppressed
anti-tumor effect compared with TOV-21G and RMG-I xenografts [20]: weaker
estimated tumor volumes compared to the control ([20]; 6 mg/kg daily, totally 8 times): smaller
IC50 [21]: < 200 nM
doses clearly inducing p-TP53 (Ser46), not p-TP53 (Ser15) ([22]; OVMANA cells): 156–2,500 nM
level of p-MDM2 ([22]; dose-dependent): reduced

IC50 [25]: > 2560 nM
SMILES: CO[C@H]1C[C@@H]2CC[C@@H](C)[C@@](O)(O2)C(=O)C(=O)N2CCCC[C@H]2C(=O)O[C@H]([C@H](C)C[C@@H]2CC[C@@H](O)[C@H](OC)C2)CC(=O)[C@H](C)/C=C(\C)[C@@H](O)[C@@H](OC)C(=O)[C@H](C)C[C@H](C)/C=C/C=C/C=C/1C [rapamycin]
apoptotic cell death ([5]; OCCA cells, even at 2,500 nM): ≤ 5%
levels of p-FOXO3a and p-FOXO1 ([11]; 2,500 nM, OVISE): increased
suppression of p-Akt ([11]; any dose (0 to 2,500 nM), OVISE): did not suppress
IC50 [23]: > 2560 nM
IC50 [24]: > 2560 nM
IC50 [26]: > 2560 nM
IC50 [27]: > 2560 nM
